Assay results published in patent publication US11802120B2, “Fused cyclic urea derivatives as CRHR2 antagonist” (RaQualia Pharma Inc., priority 2018, dated 2023).

Target: T1, human CRHR2-alpha (Homo sapiens, UniProt Q13324)
T1 sequence (Q13324 1-411): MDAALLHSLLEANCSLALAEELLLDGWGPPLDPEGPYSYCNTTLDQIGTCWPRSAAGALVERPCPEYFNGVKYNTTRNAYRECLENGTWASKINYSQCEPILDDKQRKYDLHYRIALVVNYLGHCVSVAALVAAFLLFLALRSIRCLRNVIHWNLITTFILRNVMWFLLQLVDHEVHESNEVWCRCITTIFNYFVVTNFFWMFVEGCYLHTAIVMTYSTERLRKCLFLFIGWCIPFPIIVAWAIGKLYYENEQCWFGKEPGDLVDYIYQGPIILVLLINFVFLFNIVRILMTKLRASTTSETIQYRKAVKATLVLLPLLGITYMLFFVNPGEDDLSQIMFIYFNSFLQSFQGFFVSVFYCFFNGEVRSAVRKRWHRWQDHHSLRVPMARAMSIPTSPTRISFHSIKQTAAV
Test: cAMP functional assay for human CRHR2 (LANCE Ultra cAMP, TR-FRET)
Assay type: cell-based
Details: CHO-K1 cells expressing human CRHR2-alpha, agonist human urocortin2 at EC80, cAMP; read-out: IC50 against CRHR2
How it was run: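 Inhibition of agonist-driven cAMP was assessed in recombinant CHO-K1 cells at 25° C, using 30 min compound pretreatment and 30 min stimulation with EC80 human urocortin2 (CRHR2) or CRF (CRHR1). IC50 came from dose-response fitting.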

Row | SMILES | IC50 [nM]
1 | O=C(N[C@H]1CC[C@H](Cn2c(=O)n(-c3cccc4nccn34)c3ccccc32)CC1)c1cc(Cl)cnc1C(F)F [Example 420, 5-chloro-2-(difluoromethyl)-N-((1r,4r)-4-((3-(imidazo[1,2-a]pyridin-5-yl)-2-oxo-2,3-dihydro-1H-benzo[d]imidazol-1-yl)methyl)cyclohexyl)nicotinamide] | < 300
2 | O=C(N[C@H]1CC[C@H](Cn2c(=O)n(-c3ccc4ccncc4c3)c3ccccc32)CC1)c1cc(Cl)cnc1C(F)F [Example 423, 5-chloro-2-(difluoromethyl)-N-((1r,4r)-4-((3-(isoquinolin-7-yl)-2-oxo-2,3-dihydro-1H-benzo[d]imidazol-1-yl)methyl)cyclohexyl)nicotinamide] | < 300
3 | Cc1c[nH]c2ncc(-n3c(=O)n(C[C@H]4CC[C@H](NC(=O)c5cc(Cl)cnc5C(F)(F)F)CC4)c4cccnc43)cc12 [Example 427, 5-chloro-N-((1r,4r)-4-((3-(3-methyl-1H-pyrrolo[2,3-b]pyridin-5-yl)-2-oxo-2,3-dihydro-1H-imidazo[4,5-b]pyridin-1-yl)methyl)cyclo-hexyl)-2-(trifluoromethyl) nicotinamide] | < 300
4 | O=C(N[C@H]1CC[C@H](Cn2c(=O)n(-c3ccc(O[C@@H]4CCOC4)nc3)c3ccccc32)CC1)c1cc(Cl)cnc1C(F)F [Example 428, 5-chloro-2-(difluoromethyl)-N-((1R,4r)-4-((2-oxo-3-(6-(((R)-tetrahydrofuran-3-yl)oxy)pyridin-3-yl)-2,3-dihydro-1H-benzo[d]imidazol-1-yl)methyl)cyclohexyl)nicotinamide] | < 300
5 | CC(C)(O)COc1ccc(-n2c(=O)n(C[C@H]3CC[C@H](NC(=O)c4cc(Cl)cnc4C(F)F)CC3)c3ccccc32)cn1 [Example 429, 5-chloro-2-(difluoromethyl)-N-((1r,4r)-4-((3-(6-(2-hydroxy-2-methylpropoxy)pyridin-3-yl)-2-oxo-2,3-dihydro-1H-benzo[d]imidazol-1-yl)methyl)cyclohexyl) nicotinamide] | < 300
6 | O=C(N[C@H]1CC[C@H](Cn2c(=O)n(-c3ccc(O[C@H]4CCOC4)nc3)c3ccccc32)CC1)c1cc(Cl)cnc1C(F)F [Example 430, 5-chloro-2-(difluoromethyl)-N-((1S,4r)-4-((2-oxo-3-(6-(((S)-tetrahydrofuran-3-yl)oxy)pyridin-3-yl)-2,3-dihydro-1H-benzo[d]imidazol-1-yl)methyl)cyclohexyl)nicotinamide] | < 300
7 | O=C(N[C@H]1CC[C@H](Cn2c(=O)n(-c3ccc(OCCF)nc3)c3ccccc32)CC1)c1cc(Cl)cnc1C(F)F [Example 432, 5-chloro-2-(difluoromethyl)-N-((1r,4r)-4-((3-(6-(2-fluoroethoxy)pyridin-3-yl)-2-oxo-2,3-dihydro-1H-benzo[d]imidazol-1-yl)methyl)cyclohexyl)nicotinamide] | < 300
8 | Cc1ncc(Cl)cc1C(=O)N[C@H]1CC[C@H](Cn2c(=O)n(-c3ccc(NCC(F)(F)F)nc3)c3ccccc32)CC1 [Example 436, 5-chloro-2-methyl-N-((1r,4r)-4-((2-oxo-3-(6-((2,2,2-trifluoro-ethyl)amino)pyridin-3-yl)-2,3-dihydro-1H-benzo[d]imidazol-1-yl)methyl)cyclohexyl) nicotinamide] | < 300
9 | Cc1ncc(Cl)cc1C(=O)N[C@H]1CC[C@H](Cn2c(=O)n(-c3ccc(NCC(F)F)nc3)c3ccccc32)CC1 [Example 437, 5-chloro-N-((1r,4r)-4-((3-(6-((2,2-difluoroethyl)amino)pyridin-3-yl)-2-oxo-2,3-dihydro-1H-benzo[d]imidazol-1-yl)methyl)cyclohexyl)-2-methylnicotinamide] | < 300
10 | Cc1ncc(Cl)cc1C(=O)N[C@H]1CC[C@H](Cn2c(=O)n(-c3ccc(OC[C@@H](C)O)nc3)c3ccccc32)CC1 [Example 438, 5-chloro-N-((1R,4r)-4-((3-(6-((R)-2-hydroxypropoxy)pyridin-3-yl)-2-oxo-2,3-dihydro-1H-benzo[d]imidazol-1-yl)methyl)cyclohexyl)-2-methylnicotinamide] | < 300
11 | C[C@@H](O)COc1ccc(-n2c(=O)n(C[C@H]3CC[C@H](NC(=O)c4cc(Cl)cnc4C(F)F)CC3)c3ccccc32)cn1 [Example 439, 5-chloro-2-(difluoromethyl)-N-((1R,4r)-4-((3-(6-((R)-2-hydroxypropoxy)pyridin-3-yl)-2-oxo-2,3-dihydro-1H-benzo[d]imidazol-1-yl)methyl)cyclohexyl)nicotinamide] | < 300
12 | Cc1ncc(Cl)cc1C(=O)N[C@H]1CC[C@H](Cn2c(=O)n(-c3ccc(NCc4cnn(C)c4)nc3)c3ccccc32)CC1 [Example 441, 5-chloro-2-methyl-N-((1r,4r)-4-((3-(6-(((1-methyl-1H-pyrazol-4-yl)methyl)amino)pyridin-3-yl)-2-oxo-2,3-dihydro-1H-benzo[d]imidazol-1-yl)methyl)cyclohexyl)nicotinamide] | < 300
13 | Cc1ncc(Cl)cc1C(=O)N[C@H]1CC[C@H](Cn2c(=O)n(-c3cnc4cccnc4c3)c3ccccc32)CC1 [Example 442, N-((1r,4r)-4-((3-(1,5-naph-thyridin-3-yl)-2-oxo-2,3-dihydro-1H-benzo[d]imidazol-1-yl)methyl)cyclo-hexyl)-5-chloro-2-methyl-nicotinamide] | < 300
14 | Cc1ncc(Cl)cc1C(=O)N[C@H]1CC[C@H](Cn2c(=O)n(-c3ccc4cncnc4c3)c3ccccc32)CC1 [Example 443, 5-chloro-2-methyl-N-((1r,4r)-4-((2-oxo-3-(quinazolin-7-yl)-2,3-dihydro-1H-benzo[d]imidazol-1-yl)methyl)cyclo-hexyl)nicotinamide] | < 300

Results, then the molecule that gave them:

Row | IC50 [nM] | SMILES
15 | < 300 | O=C(N[C@H]1CC[C@H](Cn2c(=O)n(-c3cncc4ccccc34)c3ccccc32)CC1)c1cc(Cl)cnc1C(F)F [Example 418, 5-chloro-2-(difluoromethyl)-N-((1r,4r)-4-((3-(isoquinolin-4-yl)-2-oxo-2,3-dihydro-1H-benzo [d]imidazol-1-yl)methyl)cyclo-hexyl)nicotinamide]
16 | < 300 | O=C(N[C@H]1CC[C@H](Cn2c(=O)n(-c3cccc4cccnc34)c3ccccc32)CC1)c1cc(Cl)cnc1C(F)F [Example 419, 5-chloro-2-(difluoromethyl)-N-((1r,4r)-4-((2-oxo-3-(quinolin-8-yl)-2,3-dihydro-1H-benzo [d]imidazol-1-yl)methyl)cyclo-hexyl)nicotinamide]
17 | < 300 | Cn1cc2c(-n3c(=O)n(C[C@H]4CC[C@H](NC(=O)c5cc(Cl)cnc5C(F)F)CC4)c4ccccc43)cccc2n1 [Example 421, 5-chloro-2-(difluoromethyl)-N-((1r,4r)-4-((3-(2-methyl-2H-indazol-4-yl)-2-oxo-2,3-dihydro-1H-benzo[d]imidazol-1-yl)methyl)cyclohexyl)nicotinamide]
18 | < 300 | O=C(N[C@H]1CC[C@H](Cn2c(=O)n(-c3ccc4cccnc4c3)c3ccccc32)CC1)c1cc(Cl)cnc1C(F)F [Example 422, 5-chloro-2-(difluoromethyl)-N-((1r,4r)-4-((2-oxo-3-(quinolin-7-yl)-2,3-dihydro-1H-benzo[d]imidazol-1-yl)methyl)cyclo-hexyl)nicotinamide]
19 | < 300 | O=C(N[C@H]1CC[C@H](Cn2c(=O)n(-c3cnc4[nH]ccc4c3)c3ccccc32)CC1)c1cc(Cl)cnc1C(F)(F)F [Example 424, 5-chloro-N-((1r,4r)-4-((2-oxo-3-(1H-pyrrolo[2,3-b]pyridin-5-yl)-2,3-dihydro-1H-benzo [d]imidazol-1-yl)methyl)cyclo-hexyl)-2-(trifluoromethyl) nicotinamide]
20 | < 300 | Cc1c[nH]c2ncc(-n3c(=O)n(C[C@H]4CC[C@H](NC(=O)c5cc(Cl)cnc5C(F)(F)F)CC4)c4ccccc43)cc12 [Example 425, 5-chloro-N-((1r,4r)-4-((3-(3-methyl-1H-pyrrolo[2,3-b]pyridin-5-yl)-2-oxo-2,3-dihydro-1H-benzo[d]imidazol-1-yl)methyl)cyclo-hexyl)-2-(trifluoromethyl) nicotinamide]
21 | < 300 | CONC(=O)c1ccc(-n2c(=O)n(C[C@H]3CC[C@H](NC(=O)c4cc(Cl)cnc4C(F)(F)F)CC3)c3ccccc32)cn1 [Example 431, 5-(3-(((1r,4r)-4-(5-chloro-2-(trifluoromethyl)nicotinamido)cyclohexyl)methyl)-2-oxo-2,3-dihydro-1H-benzo[d]imidazol-1-yl)-N-methoxypicolinamide]
22 | < 300 | CNc1cc(C)c(-n2c(=O)n(C[C@H]3CC[C@H](NC(=O)c4cc(Cl)cnc4C)CC3)c3ccccc32)cn1 [Example 435, 5-chloro-2-methyl-N-((1r,4r)-4-((3-(4-methyl-6-(methylamino)pyridin-3-yl)-2-oxo-2,3-dihydro-1H-benzo[d]imidazol-1-yl)methyl)cyclohexyl)nicotinamide]
23 | < 300 | C[C@H](O)COc1ccc(-n2c(=O)n(C[C@H]3CC[C@H](NC(=O)c4cc(Cl)cnc4C(F)F)CC3)c3ccccc32)cn1 [Example 440, 5-chloro-2-(difluoromethyl)-N-((1S,4r)-4-((3-(6-((S)-2-hydroxypropoxy)pyridin-3-yl)-2-oxo-2,3-dihydro-1H-benzo[d]imidazol-1-yl)methyl)cyclohexyl)nicotinamide]
